Laboratory results reported in publication PMC9871744 (Cellular and Molecular Gastroenterology and Hepatology, 2022).
Where “and” joins values, the source holds several entries; their conditions need not be identical. Equal values may be shown once.

Assays:
HepG2 cells [1] = test: Micronucleus analysis
Cytotoxicity evaluation = details: human, Cytotoxicity (%)
HepG2 cells [2] = test: Cytotoxicity evaluation
C57Bl/6 male mice [3] = test: Lingual application: pancreato-bile secretion and release of gut peptides; assay type: in vivo; details: tongue application 100 μmol/L; at 30 and 60 minutes
human fungiform TBC = test: Ca2+ signaling in human fungiform TBC; assay type: cell-based
mouse fungiform TBC = test: Ca2+ signaling in mouse fungiform TBC; assay type: cell-based; details: LA at 20 μmol/L
[4] = tested on: chorda tympani (CT) nerve; test: Chorda tympani; assay type: in vivo; details: lingual application in mice; 1, 2, and 4 mmol/L; normalized to NH4Cl 100 mmol/L
C57Bl/6 male mice [5] = test: Two-bottle preference and licking tests; assay type: in vivo; details: 75 μmol/L in 0.3% xanthan gum, 12 hours
C57BL/6J male mice = test: Diet-induced obesity; assay type: in vivo
[6] = target: T1, human estrogen receptor alpha (hERα) (Homo sapiens, UniProt P03372); test: Estrogen receptor transcriptional activation and inhibition assays; assay type: cell-based
T1 sequence (P03372 1-595): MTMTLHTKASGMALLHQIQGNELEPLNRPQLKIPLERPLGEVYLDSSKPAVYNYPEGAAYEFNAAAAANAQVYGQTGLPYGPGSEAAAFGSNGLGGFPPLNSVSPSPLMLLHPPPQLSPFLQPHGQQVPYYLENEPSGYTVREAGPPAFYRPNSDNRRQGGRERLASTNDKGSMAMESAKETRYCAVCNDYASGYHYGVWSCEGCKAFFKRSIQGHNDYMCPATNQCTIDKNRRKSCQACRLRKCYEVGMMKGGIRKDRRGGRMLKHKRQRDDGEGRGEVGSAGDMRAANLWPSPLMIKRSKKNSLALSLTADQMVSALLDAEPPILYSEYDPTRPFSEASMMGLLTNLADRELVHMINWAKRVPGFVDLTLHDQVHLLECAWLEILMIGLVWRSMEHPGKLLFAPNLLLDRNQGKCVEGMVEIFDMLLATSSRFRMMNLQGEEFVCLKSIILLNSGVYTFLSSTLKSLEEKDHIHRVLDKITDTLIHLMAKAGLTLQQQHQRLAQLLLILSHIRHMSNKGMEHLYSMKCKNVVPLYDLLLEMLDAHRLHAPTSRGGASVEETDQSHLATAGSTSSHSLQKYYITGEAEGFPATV

[7] = tested on: human androgen receptor (hAR); test: Androgen receptor transcriptional activation and inhibition assays; assay type: cell-based
female Wistar rats = test: Toxicity / median lethal dose test, OECD guidelines 425; assay type: in vivo
[8] = Pharmacokinetics and detection in blood by LC-MS; assay type: in vivo, mice; details: mice
[9] = tested on: S typhimurium tester strains TA98, TA100, TA1535, and TA1537 and E coli tester strain WP2uvrA(pKM101); details: all doses with and without S9
[10] = short treatment in the presence of S9 mix, 5 μg/mL (Table 11)
[11] = short treatment in the presence of S9 mix, 10 μg/mL (Table 12)
[12] = short treatment in the presence of S9 mix, 5 μg/mL (Table 4)
[13] = short treatment in the presence of S9 mix, 10 μg/mL (Table 7)
[14] = rats, single oral 2000 mg/kg, means ± SEM (n = 5)
[15] = short treatment in the absence of S9 mix, 2.5 mmol/L
[16] = short treatment in the absence of S9 mix, 5 mmol/L
[17] = short treatment in the absence of S9 mix, 10 mmol/L
[18] = short treatment in the presence of S9 mix, 2.5 mmol/L
[19] = short treatment in the presence of S9 mix, 5 mmol/L
[20] = short treatment in the presence of S9 mix, 10 mmol/L
[21] = extended treatment in the absence of S9 mix
[22] = short treatment in the absence of S9 mix
[23] = short treatment in the presence of S9 mix
[24] = extended treatment in the absence of S9 mix, 2.5 mmol/L
[25] = extended treatment in the absence of S9 mix, 5 mmol/L
[26] = extended treatment in the absence of S9 mix, 10 mmol/L
[27] = extended treatment in the absence of S9 mix, 0.0025 μg/mL (Table 13)
[28] = extended treatment in the absence of S9 mix, 0.025 μg/mL (Table 14)
[29] = extended treatment in the absence of S9 mix, 0.0025 μg/mL (Table 5)
[30] = extended treatment in the absence of S9 mix, 0.025 μg/mL (Table 8)

O=P1(N(CCCl)CCCl)NCCCO1 (stereo not drawn) [Cyclophosphamide, reference compound]
MNBN cells frequency (%) (HepG2 cells [1]; [10]): 2.3% and 3.1% | Mean frequency (%) of MNBN cells (HepG2 cells [1]; [10]): 2.70% | MNBN cells frequency (%) (HepG2 cells [1]; [11]): 8.2% and 7.9% | Mean frequency (%) of MNBN cells (HepG2 cells [1]; [11]): 8.05% | cytotoxicity at 5 μg/mL (Cytotoxicity evaluation; [12]): 13% | cytotoxicity at 10 μg/mL (Cytotoxicity evaluation; [13]): 5.3% | CBPI (HepG2 cells [2]; [12]): 1.73 and 1.66 | Mean CBPI (HepG2 cells [2]; [12]): 1.70 | CBPI (HepG2 cells [2]; [13]): 1.93 and 2.09 | Mean CBPI (HepG2 cells [2]; [13]): 2.01

CCCCC/C=C\C/C=C\CCCCCCCC(=O)O [LA, linoleic acid, reference compound]
release of cholecystokinin (CCK) into blood (C57Bl/6 male mice [3]): better inducer than NKS-3

CCCCC/C=C\C/C=C\CCCCCCCC(=O)OCC1(C)COC1 [NKS-5, (9Z,12Z)-(3-methyloxetan-3-yl)methyl octadeca-9,12-dienoate]
Ca2+ signaling compared with a dietary long-chain fatty acid (human fungiform TBC): higher | increase in intracellular free Ca2+ concentrations, [Ca2+]i (human fungiform TBC; NKS-3 50 μmol/L, NKS-5 25 μmol/L): induced an increase | Ca2+ signaling compared with a dietary long-chain fatty acid (mouse fungiform TBC): higher | CT nerve responses compared with dietary LCFAs (LA, OA) [4]: higher | release of cholecystokinin (CCK) into blood (C57Bl/6 male mice [3]): more efficient than NKS-3 and LA | release of peptide YY (PYY) into blood (C57Bl/6 male mice [3]): more potent than NKS-3 and LA | preference in 2-bottle paradigm versus control solution (C57Bl/6 male mice [5]): significant preference | CD36 (reduced) and GPR120 (high) protein expression in TBC, Western blots (C57BL/6J male mice; HFD animals, FTA intake 16 weeks): reversed this trend | LA-induced decreases in [Ca2+]i in TBC from obese mice (C57BL/6J male mice; HFD mice given FTA 16 weeks): reversed | size of hepatocytes (C57BL/6J male mice; HFD-fed mice): decreased | fecal microbiota: bacterial family increased (C57BL/6J male mice; HFD-fed mice, 16S rRNA sequencing, week 26): Bacteroidaceae | adipose tissue mRNA encoding leptin, CD36, TNF-α, and IL6 (C57BL/6J male mice; HFD-fed mice, epididymal adipose tissue): down-regulated | crown-like structures of adipocytes (C57BL/6J male mice; obese animals, histology): decreased | circulating TNF-α levels (C57BL/6J male mice; obese mice): failed to decrease significantly | release of GLP-1, CCK-1, and PYY into blood circulation (C57BL/6J male mice; obese mice, end of week 26): induced the release | estrogenic or antiestrogenic potential (conclusion) [6]: did not exert an estrogenic or antiestrogenic potential | androgenic or antiandrogenic property (conclusion) [7]: did not possess androgenic or antiandrogenic property | weight of kidneys (female Wistar rats; [14]): 1.84 ± 0.112 g | weight of liver (female Wistar rats; [14]): 8.03 ± 0.136 g | weight of spleen (female Wistar rats; [14]): 0.90 ± 0.062 g | toxic effect on liver enzymes and blood lipid parameters (female Wistar rats; rats, single oral limit dose 2000 mg/kg body weight, 2 weeks): No toxic effect | evidence of toxicity, preliminary study (female Wistar rats; single animal, oral dosages of 5000 mg/kg body weight): no evidence of toxicity | detection in blood circulation after intravenous injections (LC-MS) [8]: below the level of detection | MNBN cells frequency (%) (HepG2 cells [1]; [15]): 1.1% and 0.8% | Mean frequency (%) of MNBN cells (HepG2 cells [1]; [15]): 0.95% | MNBN cells frequency (%) (HepG2 cells [1]; [16]): 1.1% and 1.3% | Mean frequency (%) of MNBN cells (HepG2 cells [1]; [16]): 1.20% | MNBN cells frequency (%) (HepG2 cells [1]; [17]): 0.9% and 0.8% | Mean frequency (%) of MNBN cells (HepG2 cells [1]; [17]): 0.85% | MNBN cells frequency (%) (HepG2 cells [1]; [18]): 1.0% and 1.1% | Mean frequency (%) of MNBN cells (HepG2 cells [1]; [18]): 1.05% | MNBN cells frequency (%) (HepG2 cells [1]; [19]): 0.9% | Mean frequency (%) of MNBN cells (HepG2 cells [1]; [19]): 0.90% | MNBN cells frequency (%) (HepG2 cells [1]; [20]): 0.9% and 0.8% | Mean frequency (%) of MNBN cells (HepG2 cells [1]; [20]): 0.85% | cytotoxicity at 2.5 mmol/L (Cytotoxicity evaluation; [21]): 5.29% | cytotoxicity at 5 mmol/L (Cytotoxicity evaluation; [21]): 19.6% | cytotoxicity at 10 mmol/L (Cytotoxicity evaluation; [21]): 14.7% | cytotoxicity at 2.5 mmol/L (Cytotoxicity evaluation; [22]): -5.78% | cytotoxicity at 5 mmol/L (Cytotoxicity evaluation; [22]): -1.42% | cytotoxicity at 10 mmol/L (Cytotoxicity evaluation; [22]): 1.32% | cytotoxicity at 2.5 mmol/L (Cytotoxicity evaluation; [23]): -0.59% | cytotoxicity at 5 mmol/L (Cytotoxicity evaluation; [23]): -6.22% | cytotoxicity at 10 mmol/L (Cytotoxicity evaluation; [23]): 1.64% | CBPI (HepG2 cells [2]; [24]): 2.02 and 1.97 | Mean CBPI (HepG2 cells [2]; [24]): 1.99 | CBPI (HepG2 cells [2]; [25]): 1.83 and 1.85 | Mean CBPI (HepG2 cells [2]; [25]): 1.84 | CBPI (HepG2 cells [2]; [26]): 1.95 and 1.84 | Mean CBPI (HepG2 cells [2]; [26]): 1.89 | CBPI (HepG2 cells [2]; [15]): 1.99 and 1.98 | Mean CBPI (HepG2 cells [2]; [15]): 1.98 | CBPI (HepG2 cells [2]; [16]): 1.95 and 1.94 | Mean CBPI (HepG2 cells [2]; [16]): 1.94 | CBPI (HepG2 cells [2]; [17]): 1.91 and 1.93 | Mean CBPI (HepG2 cells [2]; [17]): 1.92 | CBPI (HepG2 cells [2]; [18]): 2.07 | Mean CBPI (HepG2 cells [2]; [18]): 2.07 | CBPI (HepG2 cells [2]; [19]): 2.14 and 2.12 | Mean CBPI (HepG2 cells [2]; [19]): 2.13 | CBPI (HepG2 cells [2]; [20]): 2.06 and 2.04 | Mean CBPI (HepG2 cells [2]; [20]): 2.05 | toxicity in the tester strains [9]: No toxicity

CC[C@]1(O)C[C@@H]2CN(CCc3c([nH]c4ccccc34)[C@@](C(=O)OC)(c3cc4c(cc3OC)N(C)[C@H]3[C@@](O)(C(=O)OC)[C@H](OC(C)=O)[C@]5(CC)C=CCN6CC[C@]43[C@@H]65)C2)C1 [Vinblastine, reference compound]
MNBN cells frequency (%) (HepG2 cells [1]; [27]): 11.5% and 12.3% | Mean frequency (%) of MNBN cells (HepG2 cells [1]; [27]): 11.9% | MNBN cells frequency (%) (HepG2 cells [1]; [28]): 4.6% and 4.1% | Mean frequency (%) of MNBN cells (HepG2 cells [1]; [28]): 4.35% | cytotoxicity at 0.0025 μg/mL (Cytotoxicity evaluation; [29]): 27.1% | cytotoxicity at 0.025 μg/mL (Cytotoxicity evaluation; [30]): 9.29% | CBPI (HepG2 cells [2]; [29]): 1.67 | Mean CBPI (HepG2 cells [2]; [29]): 1.67 | CBPI (HepG2 cells [2]; [30]): 1.97 and 1.92 | Mean CBPI (HepG2 cells [2]; [30]): 1.95
